Laboratory results as given in US12441695B2, “Substituted thiadiazinone dioxide and preparation method therefor, herbicidal composition, and application therefor” (Qingdao Kingagroot Chemical Compound Co., Ltd., priority 2019, dated 2025).

Legend:
[1] = test system: monocotyledonous and dicotyledonous weeds; experiment: Experiment on weeding effect in post-emergence stage (weeds); format: in vivo; conditions: 3 weeks after application; for Amaranthus retroflexus activity level (growth control rate): fomesafen-resistant Amaranthus retroflexus
Description: The activity level criteria for plant damage (i.e., growth control rate) are as follows: • Level 5: growth control rate is above 85%; • Level 4: growth control rate is greater than or equal to 60% and less than 85%; • Level 3: growth control rate is greater than or equal to 40% and less than 60%; • Level 2: growth control rate is greater than or equal to 20% and less than 40%; • Level 1: growth control rate is greater than or equal to […]; • Level 0: growth control rate is less than 5%.
(§1) The above growth control rates are fresh weight control rates.
(§2) (1) Experiment on weeding effect in post-emergence stage: monocotyledonous and dicotyledonous weed seeds and major crop seeds (wheat, corn, rice, soybean, cotton, oilseed rape, millet, sorghum) were placed in plastic pots filled with soil, then covered with 0.5-2 cm of soil, allowed to grow in a good greenhouse environment. After 2-3 weeks of sowing, the test plants were treated. The tested compounds of the present invention were respectively dissolved in acetone, then added with Tween 80, diluted with a certain amount of water to obtain a solution with a certain concentration, and sprayed with a spray tower onto the plants. After the application, the plants were cultured for 3 weeks in the greenhouse, and then the experimental results of the weeding were listed in Table 2.

[2] = test system: major crops (wheat, corn, rice, soybean, cotton, oilseed rape, millet, sorghum); experiment: Experiment on weeding effect in post-emergence stage (crops); format: in vivo; conditions: 600 g/ha active ingredient plus water 450 kg/ha, 3 weeks after application; for corn plant damage level (growth control rate): crop corn; for rice plant damage level (growth control rate): crop rice; for soybean plant damage level (growth control rate): crop soybean
Method: as §1
as §2, with “plants.” for “plants. After the application, the plants were cultured for 3 weeks in the greenhouse, and then the experimental results of the weeding were listed in Table 2.”

[3] = 600 g/ha active ingredient plus water 450 kg/ha, fresh weight control rate

Row | Compound | Amaranthus retroflexus activity level (growth control rate) [1, 3] | corn plant damage level (growth control rate) [2] | rice plant damage level (growth control rate) [2] | soybean plant damage level (growth control rate) [2] | Digitaria sanguinalis activity level (growth control rate) [1, 3] | Echinochloa crus-galli activity level (growth control rate) [1, 3] | Setaria viridis activity level (growth control rate) [1, 3] | Digitaria sanguinalis activity level (growth control rate) ([1]; 300 g/ha) | Echinochloa crus-galli activity level (growth control rate) ([1]; 300 g/ha) | Setaria viridis activity level (growth control rate) ([1]; 300 g/ha) | Amaranthus retroflexus activity level (growth control rate) ([1]; 300 g/ha)
1 | CCCCCCCCSC(=O)N1c2ccc(F)cc2C(=O)N(C(C)C)S1(=O)=O [Compound 189] | 4 (Level 4: growth control rate is greater than or equal to 60% and less than 85%) | 0 (Level 0: growth control rate is less than 5%) | 0 (Level 0: growth control rate is less than 5%) | 0 (Level 0: growth control rate is less than 5%) | – | – | – | – | – | – | –
2 | CC(C)N1C(=O)c2cc(F)ccc2N(C(=O)C(C)(C)C)S1(=O)=O [Compound 182] | 3 (Level 3: growth control rate is greater than or equal to 40% and less than 60%) | 0 (Level 0: growth control rate is less than 5%) | 0 (Level 0: growth control rate is less than 5%) | 0 (Level 0: growth control rate is less than 5%) | – | – | – | – | – | – | –
3 | CC(C)OC(=O)OC(C)N1c2ccc(F)cc2C(=O)N(C(C)C)S1(=O)=O (racemic) [Compound 193] | 4 (Level 4: growth control rate is greater than or equal to 60% and less than 85%) | 0 (Level 0: growth control rate is less than 5%) | 0 (Level 0: growth control rate is less than 5%) | 0 (Level 0: growth control rate is less than 5%) | – | – | – | – | – | – | –
4 | COCN1c2c(F)cc(F)cc2C(=O)N(C(C)C)S1(=O)=O [Compound 213] | 3 (Level 3: growth control rate is greater than or equal to 40% and less than 60%) | 0 (Level 0: growth control rate is less than 5%) | 1 (Level 1: growth control rate is greater than or equal to 500 and less than 200%) | 0 (Level 0: growth control rate is less than 5%) | – | – | – | – | – | – | –
5 | CC(C)N1C(=O)c2ccccc2NS1(=O)=O [G, reference compound] | 1 (Level 1: growth control rate is greater than or equal to 500 and less than 200%) | 0 (Level 0: growth control rate is less than 5%) | 1 (Level 1: growth control rate is greater than or equal to 500 and less than 200%) | 1 (Level 1: growth control rate is greater than or equal to 500 and less than 200%) | 0 (Level 0: growth control rate is less than 5%) | 0 (Level 0: growth control rate is less than 5%) | 1 (Level 1: growth control rate is greater than or equal to 500 and less than 200%) | – | – | – | –
6 | CCCCCCCCSC(=O)N1c2c(F)cc(F)cc2C(=O)N(C(C)C)S1(=O)=O [Compound 222] | 5 (Level 5: growth control rate is above 85%) | 0 (Level 0: growth control rate is less than 5%) | 0 (Level 0: growth control rate is less than 5%) | – | – | – | – | – | – | – | –
7 | C#CCN1c2ccc(F)cc2C(=O)N(C(C)C)S1(=O)=O [Compound 51] | 5 (Level 5: growth control rate is above 85%) | 0 (Level 0: growth control rate is less than 5%) | 0 (Level 0: growth control rate is less than 5%) | 0 (Level 0: growth control rate is less than 5%) | – | 3 (Level 3: growth control rate is greater than or equal to 40% and less than 60%) | 3 (Level 3: growth control rate is greater than or equal to 40% and less than 60%) | – | – | – | –
8 | CC(C)N1C(=O)c2cc(F)ccc2N(C(=O)C2CC2)S1(=O)=O [Compound 184] | 5 (Level 5: growth control rate is above 85%) | 1 (Level 1: growth control rate is greater than or equal to 500 and less than 200%) | – | – | 3 (Level 3: growth control rate is greater than or equal to 40% and less than 60%) | – | 3 (Level 3: growth control rate is greater than or equal to 40% and less than 60%) | – | – | – | –
9 | CCC(C)N1C(=O)c2cc(F)ccc2NS1(=O)=O (centres unmarked) [Compound 161] | – | 0 (Level 0: growth control rate is less than 5%) | 1 (Level 1: growth control rate is greater than or equal to 500 and less than 200%) | 0 (Level 0: growth control rate is less than 5%) | – | – | 3 (Level 3: growth control rate is greater than or equal to 40% and less than 60%) | – | – | – | –
10 | COCC(=O)N1c2ccc(F)cc2C(=O)N(C(C)C)S1(=O)=O [Compound 185] | 3 (Level 3: growth control rate is greater than or equal to 40% and less than 60%) | 0 (Level 0: growth control rate is less than 5%) | 0 (Level 0: growth control rate is less than 5%) | 0 (Level 0: growth control rate is less than 5%) | – | – | – | – | – | – | –
11 | C=CC(=O)N1c2c(F)cc(F)cc2C(=O)N(C(C)C)S1(=O)=O [Compound 216] | 4 (Level 4: growth control rate is greater than or equal to 60% and less than 85%) | 0 (Level 0: growth control rate is less than 5%) | 0 (Level 0: growth control rate is less than 5%) | – | 3 (Level 3: growth control rate is greater than or equal to 40% and less than 60%) | 3 (Level 3: growth control rate is greater than or equal to 40% and less than 60%) | 4 (Level 4: growth control rate is greater than or equal to 60% and less than 85%) | – | – | – | –
12 | CC(C)C(=O)N1c2c(F)cc(F)cc2C(=O)N(C(C)C)S1(=O)=O [Compound 215] | 5 (Level 5: growth control rate is above 85%) | 1 (Level 1: growth control rate is greater than or equal to 500 and less than 200%) | – | – | 5 (Level 5: growth control rate is above 85%) | 5 (Level 5: growth control rate is above 85%) | 5 (Level 5: growth control rate is above 85%) | – | – | – | –
13 | COc1ccc(CN2c3ccc(F)cc3C(=O)N(C(C)C)S2(=O)=O)cc1 [Compound 197] | 3 (Level 3: growth control rate is greater than or equal to 40% and less than 60%) | 0 (Level 0: growth control rate is less than 5%) | 0 (Level 0: growth control rate is less than 5%) | 0 (Level 0: growth control rate is less than 5%) | – | – | – | – | – | – | –
14 | CCS(=O)(=O)N1c2c(F)cc(F)cc2C(=O)N(C(C)C)S1(=O)=O [Compound 228] | 5 (Level 5: growth control rate is above 85%) | – | – | – | 3 (Level 3: growth control rate is greater than or equal to 40% and less than 60%) | 3 (Level 3: growth control rate is greater than or equal to 40% and less than 60%) | 5 (Level 5: growth control rate is above 85%) | – | – | – | –
15 | CC(C)N1C(=O)c2cc(F)cc(F)c2N(C(=O)OCCCCl)S1(=O)=O [Compound 221] | 5 (Level 5: growth control rate is above 85%) | – | – | – | 5 (Level 5: growth control rate is above 85%) | 4 (Level 4: growth control rate is greater than or equal to 60% and less than 85%) | 5 (Level 5: growth control rate is above 85%) | – | – | – | –
16 | CS(=O)(=O)NC(=O)c1cc(Oc2ccc(C(F)(F)F)cc2Cl)ccc1[N+](=O)[O-] [fomesafen, reference compound] | – | – | – | – | – | – | – | 0 (Level 0: growth control rate is less than 5%) | 1 (Level 1: growth control rate is greater than or equal to 500 and less than 200%) | 2 (Level 2: growth control rate is greater than or equal to 20% and less than 40%) | 1 (Level 1: growth control rate is greater than or equal to 500 and less than 200%)
